From patent US9220706B2, “Inhibition of leukemic stem cells by PP2A activating agents” (Ohio State Innovation Foundation, priority 2012, dated 2015) come the findings set out here.

One series concerns CD34+/CD38− CML cells. As to the kind of experiment: CFC/replating assay, CML cells. The format is cell-based, human. The method, then:
(§1) Long term culture-initiating cell (LTC-IC) and Colony-forming cell (CFC)/replating assays. 2×10^6 mononuclear CML cells were cultured with a 1:1 mixture of irradiated (80 Gy) IL-3/G-CSF-producing M2-10B4 and IL-3/KL-producing SI/SI murine fibroblasts in MyeloCult H5100 (StemCell Technologies) supplemented with hydrocortisone. Drugs were present during the first week of culture. Medium was replaced after 7 days, followed by weekly half-medium changes. After 6 weeks, adherent and floating cells were harvested and 5×10^4 cells plated into MethoCult H4435. LTC-IC-derived colonies were scored after 14 days. For CFC/replating, individual 14-day colonies from 10^3-10^5 CD34+/CD38− CML or 0.2×10^3-10^3 leukemic LSK cells plated in 0.9% H4435 or M3234 MethoCult, respectively, containing KL, G-CSF, GM-CSF, IL-3, IL-6, and Epo were replated and scored 2 weeks later.

The next series deals with JAK2. The series can be described thus: Intracellular flow staining of active JAK2 (pJAK2). The format is cell-based, human. To be noted: CML CFSE^max/CD34^+ cells. The method, then:
(§2) Flow cytontetric analysis and sorting of HSCs. Primary CD34^+ cells were isolated by magnetic cell sorting (CD34 MultiSort; Miltenyi Biotec) and kept in IMDM supplemented with 30% FBS, 2 mM Lglutamine, rhIL-3 (20 ng/ml), rhIL-6 (20 ng/ml), rhFlt-3 ligand (100 ng/ml), and rhKL (100 ng/ml) (Stem Cell Technologies). The CD34+ fraction derived from the BM of healthy donors and the PB or BM from CML patients was stained with anti-CD34 FITC or PE, and anti-CD38 PE-Cy7 (BD Biosciences). The Lin− fraction of murine mononuclear cells was stained with anti-Sca-1 PeCy7 (BD Biosciences) and anti-c-kit APC-AlexaFluor750 (eBioscience), The CD34^+/CD38^− or the Lin−/Sca-1+/c-Kit+ (LSK) fractions were sorted by fluorescence-activated cell sorting with a FACS Aria II instrument (BD Biosciences). […]

For a further series, the system named is BCR-ABL1. As to the kind of experiment: Intracellular flow staining of active BCR-ABL1 (pABL). The format is cell-based, human. The method, then: as §2
The test system of series [1] is β-catenin-driven (LEF/TCF) transcriptional activity. As to the kind of experiment: LEF/TCF reporter assay. The class given is cell-based, human. Particulars: CD34^+/CD38^− CML and 32D-BCR/ABL cells. The method, then: LEF/TCF reporter assay. CD34+/CD38− CML cells were transduced with pBAR or pfuBAR (negative control) ®-catenin lentiviral reporter constructs (54), puromycin-selected and treated with the indicated drugs. Luciferase was measured using the Bright-Glo Luciferase system (Promega).
(Reporter assays use an easily measured gene product as a stand-in for the process of interest.)

In the next series the test system is CML cells. As to the kind of experiment: Long term culture-initiating cell (LTC-IC) assay. The format is cell-based, human. Particulars: drug during first week of 6-week culture, vs untreated. The method, then:
as §1

The next series concerns BCR-ABL1^+ cells. As to the kind of experiment: Intracellular phosphorylation of FTY720. The format is cell-based.
For another series, the target named is T1, PP2A (Homo sapiens, UniProt P67775).
T1 construct: PP2Ac assays from whole cell lysates; endogenous in cells; host or cells: CD34+/CD38- and CD34+/CD38+ primary CML and normal bone-marrow cells; immunoprecipitated with Millipore PP2Ac antibody
T1 sequence (P67775 whole entry): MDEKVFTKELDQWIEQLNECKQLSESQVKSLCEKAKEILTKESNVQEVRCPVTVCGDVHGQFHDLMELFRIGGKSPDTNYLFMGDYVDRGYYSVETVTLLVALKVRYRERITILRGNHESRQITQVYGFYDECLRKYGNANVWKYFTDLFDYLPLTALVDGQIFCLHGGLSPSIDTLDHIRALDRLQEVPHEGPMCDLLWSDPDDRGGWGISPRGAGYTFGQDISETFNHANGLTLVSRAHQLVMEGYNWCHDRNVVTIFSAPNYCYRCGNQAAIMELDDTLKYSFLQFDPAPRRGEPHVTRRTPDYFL
The series can be described thus: PP2A phosphatase assay. The class given is cell-based. To be noted: CD34+/CD38− CML cells; FTY720 at concentration non-toxic for normal CD34+ progenitors. The method, then: PP2A phosphatase assay. PP2Ac assays from whole cell lysates were carried out using the PP2Ac immunoprecipitation phosphatase assay kit (Millipore). Briefly, protein lysates (50 μg) in 100 μl of 20 mM Hepes. pH 7.0, 100 mM NaCl, 5 μg of PP2Ac antibody (Millipore), and 25 μl of Protein A-agarose were added to 400 μl of 50 mM Tris, pH 7.0, 100 mM CaCl2, and IPs were carried out at 4° C. for 2 h. IPs were used in the phosphatase reaction according to the manufacturer's protocol.

The subject of series [2] is GFP+ leukemic LSK and LT-HSC from SCLtTA/BCR-ABL1/GFP mice. The series can be described thus: BM serial transplantation, transgenic BCR-ABL1 mice. The format is in vivo, mouse. As to the method: BM Serial Transplantation Assays and In Vivo Effect of FTY720 on LT-HSCs from Transgenic BCR-ABL1 Mice. 2×10^6 GFP+ BM or 3×10^3 GFP+ BM-derived LSK (Lin^−/Sca-1^+/Kit^+) cells from 4-week induced leukemic SCLtTA/BCR-ABL1/GFP mice were transplanted into lethally-irradiated FVB/N mice. After the onset of neutrophilia (4 weeks post-transplant), mice were FTY720- (10 mg/kg/day, i.p.) or vehicle-treated for 4 weeks. The number of total GFP+ cells and GFP+ long-term (LT)-HSCs (Lin^−/Sca-1^+/Kit^+/FLt3^−/CD150^+/CD48^−) was measured with a LSRII flow cytometer. BM cells (2×10^6, 1×10^6 and 0.5×10^6) from treated and untreated animals (8 mice/group) mixed with 2×10^5 FVB/N BM cells were transplanted into lethally-irradiated secondary recipients. Engraftment (GFP^+ in PB>0.1%) was monitored every 4 weeks, and LT-HSC frequency was determined 16 weeks after secondary transplant using Poisson statistics. All animal studies were IACUC approved.

[3] abbreviates: FTY720 10 mg/kg/day i.p., 4-week treatment.

Consider `CCCCCCCCc1ccc(CCC(N)(CO)CO)cc1` [FTY720], for which the “reduction in replating efficiency” value with CD34+/CD38− CML cells is recorded as 70-90%. In the series with JAK2, the “JAK2 activity (pJAK2)” value was “suppressed”. Also, the “inhibition of BCR-ABL1 activity (pABL levels)” value with BCR-ABL1 (bulk CD34 CML cells) is reported as “occurred in the bulk”; in the series with BCR-ABL1 (quiescent fraction (CFSE^max) of CD34 CML cells), “not in the quiescent fraction”. Moreover, the “β-catenin transcriptional activity (LEF/TCF luciferase)” value in series [1] is on record as “markedly impaired”. Also, the “inhibition of LTC-ICs” value in the series on CML cells is given as 60-70%. The “intracellular FTY720 remaining unphosphorylated” value with BCR-ABL1^+ cells was “more than 90%”. Also, the “PP2A activity in leukemic HSCs” value on PP2A was “restored PP2A activity at levels superimposable to those observed in the identical cell fraction from healthy donors”. For the same compound, the “secondary recipients with leukemic engraftment” value in series [2] (BM from treated mice, Table I Exp 1) is on record as 25%. Further, the “Engraftment-positive at 16 weeks (>0.1% GFP+)” value is on record as 2/8 in series [2] (Experiment #1, cell dose in 2nd recipients 2,000,000); 0/8 in series [2] (Experiment #2, cell dose in 2nd recipients 500,000); 3/7 in series [2] (Experiment #2, cell dose in 2nd recipients 1,000,000); 5/7 in series [2] (Experiment #2, cell dose in 2nd recipients 2,000,000). Also, the LT-HSC frequency in series [2] (Experiment #2, Poisson statistics, 16 weeks after secondary transplant) is 0.45 × 10^−6. For the same compound, in series [2] (setting [3]), the “reduction of GFP^+ (leukemic) LSK” value is at least 50%. Further, the “reduction of splenic and/or BM GFP^+ LT-HSC” value in series [2] (setting [3]) is listed as at least 70%. In addition, in series [2] (limiting dilution analysis, Table I Exp. 2), the “reduction of frequency of leukemic LT-HSCs” value is reported as about 80%.
